pIC50: −log10 of the molar value. Values belong to the compound of their own block, whether it stands above or below them.
How the values were obtained:
Male Wistar rats = assay: MK-801-Induced Psychosis Model; assay type: in vivo, rat; details: rat, 1 mg/kg i.p.; MK-801 0.3 mg/kg i.p.
Excerpt: The non-competitive NMDA receptor antagonist MK-801 induces stereotypies and hyperactivity in rodents (1) by interacting with the NMDA receptor-associated ion channel. Phencyclidine, which also interferes with the NMDA receptor, produces psychotic effects in humans similar in many respects to schizophrenia. […] Therefore the MK-801-induced activity and stereotypies in rats may represent an appropriate animal model to test the potential efficacy of antipsychotic drugs.
Male Wistar rats (Iffa Crédo, St Germain/l'Arbresle, France), weight 250-300 g were housed 2 per cage on a 12 h/12 h light dark cycle (lights on at 7.00 a.m.) at a room temperature of 21±2° C. for a minimum of 5 days before testing. All animals had access to commercial food and tap water ad libitum.
On the day of the experiment, rats were treated with either reference drug vehicle, the reference drugs haloperidol or clozapine the test compound vehicle or test compounds. After administration, the rats were returned to their home cages for 15 minutes. […] The remaining rats treated with placebo received a second injection of vehicle. The standard injection volume was 2.0 ml/kg. After 10 minutes in the home cages, rats were transferred to the test box (Plexiglas, 29×12×12 cm), 5 minutes before the assessment for accomodation. The test box was cleaned with 70% ethanol before each assessment. Stereotypies, defined as wall-contacts with the snout, and locomotion, defined as turn-rounds of 180°, were assessed during 5 minute periods.

Male rats = assay: Elevated plus maze test (anxiolytic effects); assay type: in vivo; details: rat, doses 1 mg/kg and 5 mg/kg
Excerpt: In the present study, 32 was investigated on measures of anxiety in an elevated plus-maze test in the rat. In this test, an anxiolytic effect is defined as an increase in the percentage of total entries made onto the open arms and an increase in the percentage of time spent on the open arms of the elevated plus-maze. Anxiogenic drugs reduce both of these measures.
Male rats (Iffa Crédo, St Germain/l'Arbresle, France), weight 220−320 g ate the beginning of the experiment were housed 2 per cage on a 12 h/12 h light dark cycle (lights on at 7.00 a.m.) at a room temperature of 21±2° C. for a minimum of 5 days before testing. All animals had access to commercial food and tap water ad libitum.
The elevated plus maze test consists of four arms connected by a central square, the arms are all horizontal and at 90° […]. angle from each other making the shape of a plus sign. The maze is raised to a height of 50 cm from the ground. […] These arms are therefore referred to as the enclosed arms, respectively.
Each test was started by placing the rat at the intersect of the maze arms facing into one of the enclosed arms. The rat had free access to all 4 arms for the period of 5 min. The number and duration of entries into each arm during this time were scored manually.
Undruged rats typically spend 30-60 seconds on the open arms and about 3 minutes on the closed arms. […]

human serotonin 5-HT2B = human serotonin 5-HT2B (Homo sapiens, UniProt P41595); assay: Behavioral receptor assays: 5-HT2B; assay type: binding; details: read-out: Receptors (IC50) 5-HT2B
Sequence of human serotonin 5-HT2B (P41595 whole entry): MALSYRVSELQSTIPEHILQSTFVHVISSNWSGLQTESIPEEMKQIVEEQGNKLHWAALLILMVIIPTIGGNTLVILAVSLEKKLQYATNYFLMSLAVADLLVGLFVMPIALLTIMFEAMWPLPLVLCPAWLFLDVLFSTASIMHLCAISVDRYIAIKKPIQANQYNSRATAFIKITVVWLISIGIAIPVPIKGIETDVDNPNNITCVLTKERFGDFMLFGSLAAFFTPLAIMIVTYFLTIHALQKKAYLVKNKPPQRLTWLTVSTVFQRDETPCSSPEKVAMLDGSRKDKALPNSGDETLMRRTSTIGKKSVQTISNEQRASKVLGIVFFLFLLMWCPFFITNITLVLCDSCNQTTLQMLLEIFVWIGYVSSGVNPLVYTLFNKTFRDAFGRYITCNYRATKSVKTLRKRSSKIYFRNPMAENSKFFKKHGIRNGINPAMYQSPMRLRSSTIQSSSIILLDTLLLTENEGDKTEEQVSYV
Procedure: (§1) Various compounds of the present invention (19, 31, and 32) were evaluated in a group of assays based on mammalian cellular receptors associated with behavior. The group consisted of assays base on human dopamine D1, D2L, D3, D4.2, D4.4, D4.7, and D5 receptors, and the transporter; human serotonin 5-HT1A, 5-HT1B, 5-HT1D, 5-HT2A, 5-HT2B, 5-HT2C, 5-HT3, 5-HT5A, 5-HT6, and 5-HT7 receptors, and the human serotonin transporter; guinea pig 5-HT4 and sigma-1 receptors; rat sigma-2 and muscarinic receptors; and human NK1-3 receptors. The following table presents a subset of the results of these assays.

human serotonin 5-HT2A = human serotonin 5-HT2A (Homo sapiens, UniProt P28223); assay: Behavioral receptor assays: 5-HT2A; assay type: binding; details: read-out: Receptors (IC50) 5-HT2A
Procedure: as §1

Human Adrenergic β1 = Human Adrenergic β1 (Homo sapiens, UniProt P08588); assay: Additional receptor assay; assay type: binding
Sequence of Human Adrenergic β1 (P08588 whole entry): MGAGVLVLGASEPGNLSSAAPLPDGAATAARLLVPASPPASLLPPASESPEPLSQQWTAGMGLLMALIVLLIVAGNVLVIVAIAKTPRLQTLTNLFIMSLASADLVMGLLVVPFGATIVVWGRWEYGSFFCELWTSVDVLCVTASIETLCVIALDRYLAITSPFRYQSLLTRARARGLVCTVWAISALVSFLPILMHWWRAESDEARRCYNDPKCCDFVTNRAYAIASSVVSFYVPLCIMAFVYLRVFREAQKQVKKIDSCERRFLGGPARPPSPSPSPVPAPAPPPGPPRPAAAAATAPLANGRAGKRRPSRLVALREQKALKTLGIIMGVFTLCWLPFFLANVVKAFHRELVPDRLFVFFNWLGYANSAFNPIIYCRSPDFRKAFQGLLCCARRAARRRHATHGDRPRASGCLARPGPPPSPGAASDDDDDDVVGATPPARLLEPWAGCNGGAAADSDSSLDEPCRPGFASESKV
Procedure: (§2) Results of Additional Receptor Assays Performed on Compound 31 at a Concentration of 10 μM

[1] = target: Rat GABAA Benzodiazepine (Peripheral) (Rattus norvegicus, UniProt P16257); assay: Additional receptor assay; assay type: binding
Procedure: as §2

Rat GABAA Transporter = assay: Additional receptor assay; assay type: binding; details: 10 μM
Procedure: as §2

Human Adrenergic β3 = Human Adrenergic β3 (Homo sapiens, UniProt P13945); assay: Additional receptor assay; assay type: binding
Sequence of Human Adrenergic β3 (P13945 whole entry): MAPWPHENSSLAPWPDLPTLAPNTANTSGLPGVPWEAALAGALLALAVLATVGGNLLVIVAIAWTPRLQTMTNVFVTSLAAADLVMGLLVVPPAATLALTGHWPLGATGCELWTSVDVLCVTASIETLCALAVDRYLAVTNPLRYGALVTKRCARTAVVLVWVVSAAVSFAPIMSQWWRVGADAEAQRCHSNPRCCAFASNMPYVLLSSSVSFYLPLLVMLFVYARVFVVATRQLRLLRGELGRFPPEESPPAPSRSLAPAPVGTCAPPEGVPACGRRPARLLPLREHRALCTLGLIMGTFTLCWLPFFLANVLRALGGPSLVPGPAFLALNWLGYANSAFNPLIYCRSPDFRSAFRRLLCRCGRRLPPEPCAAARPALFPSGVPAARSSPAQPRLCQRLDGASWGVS
Procedure: as §2

Human Orphanin (ORL1) = Human Orphanin (ORL1) (Homo sapiens, UniProt P41146); assay: Additional receptor assay; assay type: binding
Sequence of Human Orphanin (ORL1) (P41146 whole entry): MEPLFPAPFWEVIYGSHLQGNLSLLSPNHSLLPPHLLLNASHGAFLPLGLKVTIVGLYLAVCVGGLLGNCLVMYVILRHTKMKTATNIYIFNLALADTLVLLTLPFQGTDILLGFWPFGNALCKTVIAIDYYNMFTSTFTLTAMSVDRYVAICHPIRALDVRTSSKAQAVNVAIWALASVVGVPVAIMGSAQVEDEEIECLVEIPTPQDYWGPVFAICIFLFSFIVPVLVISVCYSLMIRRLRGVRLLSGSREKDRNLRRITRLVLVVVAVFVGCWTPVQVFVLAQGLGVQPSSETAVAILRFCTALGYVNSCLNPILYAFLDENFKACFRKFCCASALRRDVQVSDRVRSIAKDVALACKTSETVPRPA
Procedure: as §2

Human Adrenergic β2 = Human Adrenergic β2 (Homo sapiens, UniProt P07550); assay: Additional receptor assay; assay type: binding
Sequence of Human Adrenergic β2 (P07550 whole entry): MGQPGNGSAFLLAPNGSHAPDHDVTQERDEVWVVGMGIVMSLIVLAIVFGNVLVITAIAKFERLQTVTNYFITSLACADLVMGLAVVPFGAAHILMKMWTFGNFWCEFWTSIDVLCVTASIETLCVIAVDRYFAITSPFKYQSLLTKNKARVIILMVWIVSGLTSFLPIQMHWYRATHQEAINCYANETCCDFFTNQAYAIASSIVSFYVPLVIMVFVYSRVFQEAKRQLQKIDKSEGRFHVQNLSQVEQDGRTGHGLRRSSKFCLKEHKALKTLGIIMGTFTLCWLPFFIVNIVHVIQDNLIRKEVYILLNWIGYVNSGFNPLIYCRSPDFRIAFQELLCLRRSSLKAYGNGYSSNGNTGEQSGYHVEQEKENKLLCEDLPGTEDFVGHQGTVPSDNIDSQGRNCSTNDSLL
Procedure: as §2

[2] = system: Rat Glutamate, NMDA (Agonist); assay: Additional receptor assay; assay type: binding; details: 10 μM
Procedure: as §2

[3] = target: Rat Glutamate, NMDA (Glycine) (Rattus norvegicus, UniProt P35439); assay: Additional receptor assay; assay type: binding
Procedure: as §2

Human Adrenergic α2C = Human Adrenergic α2C (Homo sapiens, UniProt P18825); assay: Additional receptor assay; assay type: binding
Sequence of Human Adrenergic α2C (P18825 whole entry): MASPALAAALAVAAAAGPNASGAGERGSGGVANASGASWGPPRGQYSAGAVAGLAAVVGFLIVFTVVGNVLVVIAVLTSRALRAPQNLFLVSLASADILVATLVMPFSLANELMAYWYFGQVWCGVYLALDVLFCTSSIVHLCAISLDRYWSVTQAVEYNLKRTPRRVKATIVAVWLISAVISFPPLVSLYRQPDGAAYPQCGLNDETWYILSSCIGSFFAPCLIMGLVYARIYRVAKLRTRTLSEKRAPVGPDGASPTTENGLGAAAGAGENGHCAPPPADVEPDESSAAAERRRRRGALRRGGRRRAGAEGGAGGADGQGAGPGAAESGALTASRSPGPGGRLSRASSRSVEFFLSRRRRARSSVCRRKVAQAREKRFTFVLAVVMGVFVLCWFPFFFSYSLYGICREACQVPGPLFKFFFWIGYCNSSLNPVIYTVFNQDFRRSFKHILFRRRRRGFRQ
Procedure: as §2

[4] = system: Rat Glutamate, NMDA (Phencyclidine); assay: Additional receptor assay; assay type: binding; details: 10 μM
Procedure: as §2

Rat GABAA Agonist Site = assay: Additional receptor assay; assay type: binding; details: 10 μM
Procedure: as §2

Human Adrenergic α2A = Human Adrenergic α2A (Homo sapiens, UniProt P08913); assay: Additional receptor assay; assay type: binding
Sequence of Human Adrenergic α2A (P08913 whole entry): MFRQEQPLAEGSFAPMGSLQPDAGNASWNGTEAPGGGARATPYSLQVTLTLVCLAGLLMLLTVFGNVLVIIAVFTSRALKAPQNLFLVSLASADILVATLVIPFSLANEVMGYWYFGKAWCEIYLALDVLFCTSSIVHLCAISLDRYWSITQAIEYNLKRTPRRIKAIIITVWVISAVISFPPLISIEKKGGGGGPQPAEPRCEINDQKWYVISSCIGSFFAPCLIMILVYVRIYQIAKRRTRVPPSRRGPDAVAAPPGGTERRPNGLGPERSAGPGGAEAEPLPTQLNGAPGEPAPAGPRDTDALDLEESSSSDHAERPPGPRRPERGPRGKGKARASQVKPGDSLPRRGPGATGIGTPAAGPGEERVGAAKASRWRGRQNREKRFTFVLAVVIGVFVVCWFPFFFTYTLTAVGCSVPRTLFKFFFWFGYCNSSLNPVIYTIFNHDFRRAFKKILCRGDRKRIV
Procedure: as §2

[5] = system: Rat GABAA Chloride Channel; assay: Additional receptor assay; assay type: binding; details: 10 μM
Procedure: as §2

[6] = system: Rat GABAA Benzodiazepine (Central); assay: Additional receptor assay; assay type: binding; details: 10 μM
Procedure: as §2

[7] = system: Rat Glutamate, NMDA (Polyamine); assay: Additional receptor assay; assay type: binding; details: 10 μM
Procedure: as §2

Rat GABAB = Rat GABAB (Rattus norvegicus, UniProt Q9Z0U4); assay: Additional receptor assay; assay type: binding; details: 10 μM
Sequence of Rat GABAB (Q9Z0U4 17-960 limits assumed): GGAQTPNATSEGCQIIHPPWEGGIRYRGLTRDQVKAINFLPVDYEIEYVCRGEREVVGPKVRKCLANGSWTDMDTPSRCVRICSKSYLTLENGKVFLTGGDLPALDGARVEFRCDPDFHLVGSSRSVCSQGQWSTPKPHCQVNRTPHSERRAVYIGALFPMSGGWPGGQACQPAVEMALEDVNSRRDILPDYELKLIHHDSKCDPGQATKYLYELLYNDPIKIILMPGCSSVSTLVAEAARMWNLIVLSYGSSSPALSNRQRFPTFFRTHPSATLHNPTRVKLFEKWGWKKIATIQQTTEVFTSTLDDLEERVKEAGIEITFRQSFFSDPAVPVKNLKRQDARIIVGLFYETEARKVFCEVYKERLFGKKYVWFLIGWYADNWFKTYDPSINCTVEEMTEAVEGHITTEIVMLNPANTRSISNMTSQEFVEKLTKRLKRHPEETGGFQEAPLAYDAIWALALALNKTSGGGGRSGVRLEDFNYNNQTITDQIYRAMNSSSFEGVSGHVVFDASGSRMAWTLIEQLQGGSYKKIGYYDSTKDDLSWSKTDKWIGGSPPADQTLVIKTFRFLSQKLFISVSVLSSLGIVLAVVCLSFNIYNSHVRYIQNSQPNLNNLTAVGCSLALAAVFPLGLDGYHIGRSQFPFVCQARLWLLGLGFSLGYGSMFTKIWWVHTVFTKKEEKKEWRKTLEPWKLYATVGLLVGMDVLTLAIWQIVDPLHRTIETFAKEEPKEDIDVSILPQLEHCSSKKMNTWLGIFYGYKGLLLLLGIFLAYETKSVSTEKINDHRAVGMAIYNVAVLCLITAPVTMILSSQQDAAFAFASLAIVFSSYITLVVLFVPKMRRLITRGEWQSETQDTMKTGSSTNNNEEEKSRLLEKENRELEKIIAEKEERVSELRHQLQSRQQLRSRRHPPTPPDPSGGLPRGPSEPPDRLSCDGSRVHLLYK
Sequence of Rat GABAB (O88871 41-940 partner): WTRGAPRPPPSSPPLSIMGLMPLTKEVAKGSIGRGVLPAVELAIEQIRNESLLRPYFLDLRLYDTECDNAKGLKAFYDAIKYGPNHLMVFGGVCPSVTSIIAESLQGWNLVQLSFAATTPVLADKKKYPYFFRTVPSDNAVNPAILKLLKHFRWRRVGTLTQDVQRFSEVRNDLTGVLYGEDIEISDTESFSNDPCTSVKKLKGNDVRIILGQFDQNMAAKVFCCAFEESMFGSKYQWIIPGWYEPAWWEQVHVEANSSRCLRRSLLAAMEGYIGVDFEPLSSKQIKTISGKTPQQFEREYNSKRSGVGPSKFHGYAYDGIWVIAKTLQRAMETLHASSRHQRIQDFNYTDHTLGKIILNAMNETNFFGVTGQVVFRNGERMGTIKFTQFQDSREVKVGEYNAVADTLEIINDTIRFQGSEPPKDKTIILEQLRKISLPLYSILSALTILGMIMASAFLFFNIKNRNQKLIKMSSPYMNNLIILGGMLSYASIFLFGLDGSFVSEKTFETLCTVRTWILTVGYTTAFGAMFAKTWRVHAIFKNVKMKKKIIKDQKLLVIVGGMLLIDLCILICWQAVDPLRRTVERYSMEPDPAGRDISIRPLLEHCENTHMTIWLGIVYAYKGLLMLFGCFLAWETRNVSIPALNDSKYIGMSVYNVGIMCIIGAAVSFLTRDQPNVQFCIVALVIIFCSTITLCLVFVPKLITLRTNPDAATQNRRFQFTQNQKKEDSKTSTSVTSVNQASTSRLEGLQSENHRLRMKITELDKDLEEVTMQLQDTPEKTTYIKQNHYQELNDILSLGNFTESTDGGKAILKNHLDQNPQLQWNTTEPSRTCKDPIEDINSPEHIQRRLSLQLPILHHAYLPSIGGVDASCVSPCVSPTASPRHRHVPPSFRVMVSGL
Procedure: as §2

Rat Adrenergic α1 = assay: Additional receptor assay; assay type: binding; details: 10 μM
Procedure: as §2

pIC50 (human serotonin 5-HT2B): > 6.00
pIC50 (human serotonin 5-HT2A): < 6.00
Structure (SMILES): OC1CCC2(CCN(Cc3ccc(F)cc3)CC2)Nc2ccccc21 (racemic) [Compound 32, 1′-(4-fluorobenzyl)-3,4-dihydrospiro[5H-1-benzazepine-2(1H)-4′-piperidin]-5ol]
MK-801-induced locomotion (Male Wistar rats): caused a reduction
MK-801-induced stereotypies (Male Wistar rats): caused a reduction
anxiolytic effect in elevated plus-maze (Male rats): tendency towards an anxiolytic effects

inhibition at 10 µM (Human Adrenergic β1): 3%
inhibition at 10 µM [1]: 16%
% Inhibition Rat GABAA Transporter (Rat GABAA Transporter): No Inhibition
inhibition at 10 µM (Human Adrenergic β3): 19%
inhibition at 10 µM (Human Orphanin (ORL1)): 12%
inhibition at 10 µM (Human Adrenergic β2): 15%
% Inhibition Rat Glutamate, NMDA (Agonist) [2]: No Inhibition
inhibition at 10 µM [3]: 2%
inhibition at 10 µM (Human Adrenergic α2C): 2%
% Inhibition Rat Glutamate, NMDA (Phencyclidine) [4]: No Inhibition
% Inhibition Rat GABAA Agonist Site (Rat GABAA Agonist Site): 13%
inhibition at 10 µM (Human Adrenergic α2A): 34%
% Inhibition Rat GABAA Chloride Channel [5]: No Inhibition
% Inhibition Rat GABAA Benzodiazepine (Central) [6]: 6%
% Inhibition Rat Glutamate, NMDA (Polyamine) [7]: 12%
% Inhibition Rat GABAB (Rat GABAB): No Inhibition
% Inhibition Rat Adrenergic α1 (Rat Adrenergic α1): 21%
Structure (SMILES): O=C1CCC2(CCN(Cc3ccc(F)cc3)CC2)Nc2ccccc21 [Compound 31, 1′-(4-fluorobenzyl)-3,4-dihydrospiro[5H-1-benzazepine-2(1H)-4′-piperidin]-5-one]
